Experiments:
[1] = Solubility study of losartan potassium with different solubilizers and pH modifying agent; format: physicochemical; conditions: losartan potassium 10 mg/mL, below pH 5.5, citrate buffer 50 mM plus solubilizer
Source text: The solubility of losartan potassium below pH 5.5 was checked in the presence of different solubilizers and pH modifying agent.

[2] = descriptive term; cited from earlier work

SMILES: CCCCc1nc(Cl)c(CO)n1Cc1ccc(-c2ccccc2-c2nnn[nH]2)cc1.[K] [Losartan potassium, 2-butyl-4-chloro-1-[p-(o-1H-tetrazol-5-ylphenyl)benzyl]imidazole-5-methanol monopotassium salt]
- Observations (solubility of losartan potassium) [1]: insolubility
- Solubility in alcohols [2]: soluble
- Solubility in chloroform [2]: practically insoluble
- Solubility in common organic solvents, such as acetonitrile and methyl ethyl ketone [2]: slightly soluble
- Solubility in water [2]: freely soluble

From US12496291B1, “Ready-to-use non-aqueous oral solution of losartan” (Liqmeds Worldwide Limited, priority 2024, dated 2025)
